According to PMC5187537, “Antioxidant Activity of Oat Proteins Derived Peptides in Stressed Hepatic HepG2 Cells” (Antioxidants, 2016):
Peptide text beside a SMILES is read from it.

What was measured:
[1] = Oxygen radical absorbance capacity (ORAC) assay; details: fluorescein 0.08 µM, AAPH 150 mM, 37 °C, 50 min, potassium phosphate buffer pH 7.4 75 mM, peptides 100 and 200 µM; triplicate, mean ± STDEV
Method: The ORAC assay was performed as previously described. The decay of fluorescein (0.08 µM) by AAPH (150 mM) at 37 °C was recorded at 1 min intervals over 50 min using a BioTek™ FL × 800™ fluorescent microplate reader (Fisher Scientific, Nepean, ON, Canada) with fluorescence filters (excitation 485/20 nm, emission 528/20 nm). Potassium phosphate buffer (pH 7.4, 75 mM) was used to dissolve peptides (100 and 200 µM) and Trolox standards (6.25–100 µM). Data analysis was done with Gen5^TM software (Fisher Scientific, Nepean, ON, Canada), and ORAC values were expressed as µM Trolox Equivalent (TE)/µM peptide using the standard curve.

HepG2 cells = test: MTT cytotoxicity assay; assay type: cell-based, Human; details: 24 h
Method: Human hepatocellular carcinoma (HepG2) cells were purchased from the American Type Culture Collection (ATCC; Manassas, VA, USA). They were cultured at 37 °C in a humidified incubator with 5% CO2 and 95% air. Dulbecco’s Minimal Essential Media (DMEM) supplemented with 10% (v/v) Fetal Bovine Serum was used for the maintenance of cells. […] The MTT (3-(4,5-dimethylthiazol-2-yl)-2,5-diphenyltetrazolium bromide) assay, as described in an earlier research, was used for cytotoxicity and cytoprotective tests. […] Following another 24 h incubation, cells were washed twice with 200 µL of PBS. Ten µL of MTT solution (5 mg/mL in PBS) and 100 µL of media were added to each well. After 1 h, MTT solution was removed, and 50 µL DMSO were added. Absorbances were recorded at 570 nm with 630 nm background subtraction using a BioTek Epoch™ microplate reader (Fisher Scientific, Nepean, ON, Canada). Untreated cells were used as negative control (NC) and cells treated with only AAPH were used as positive control (PC).

[2] = system: superoxide dismutase (SOD); test: Superoxide dismutase activity of lysates of AAPH-stressed cells; assay type: cell-based, Human; details: 50 and 100 µM peptide 24 h, then AAPH 24 h
Method: (§1) Cells were seeded at 1 × 10^6 cells/plate in 60 mm tissue culture plates and allowed to grow for 24 h. In each plate, cells were washed twice with 4 mL of PBS (pH 7.2), and treated with 4 mL peptide samples (P1, P2, P6, P7) dissolved in culture media at 50 or 100 µM for 24 h. After removal of peptide solutions, cells were washed twice with 4 mL of PBS/plate and treated with 4 mL of […] dissolved in culture media and allowed to incubate for 24 h. Cells in each culture plate were harvested by incubation (5 min) with 0.5 mL of 0.25% trypsin, addition of 1 mL of culture media and centrifugation at 1000× g for 5 min. Cell pellets were washed with ice cold PBS (500 µL each) until no pink color was observed, re-suspended in ice cold PBS (300 µL) for the superoxide dismutase (SOD) assay, 500 µL for glutathione peroxidase (GPx) and catalase (CAT) assays. For total glutathione assay, 300 µL of 5% ice cold sulfosalicylic acid bubbled with 100% nitrogen was used for cell lysis. Cells were lysed by sonication on ice for 1 min using a probe-type sonicator (Vibra-Cell, Sonics and Materials Inc., Newtown, CT, USA) pulsing at 15 s on and 10 s off cycles. Following centrifugation of cell lysate at 13,000× g (4 °C), pellets containing cell debris were discarded, while supernatants were used for determination of glutathione content. Protein contents were determined using a modified Lowry assay.
The SOD activity was measured based on the rate of reduction of nitroblue tetrazolium (2.24 mM) to formazan by xanthine oxidase (13.2 U/mL) at 560 nm. Eight concentrations of each cell extract ([…] protein/mL) or SOD standard (2–500 ng/mL) were used to obtain inhibition curves. Specifically, 20 µL of cell sample, or buffer (blank) was mixed with 160 µL of assay solution, and 20 µL of xanthine oxidase was added to initiate the reaction. The reduction of nitroblue tetrazolium to blue formazan by O2^−• generated in situ was followed at 560 nm. SOD activities were calculated and expressed as units per milligram of protein.

[3] = system: glutathione (GSH) of HepG2 cells; test: Cellular glutathione, enzymatic recycling method; assay type: cell-based, Human; details: 100 µM peptide 24 h, then AAPH 24 h, p < 0.05
Method: as §1
The assay was based on the enzymatic recycling method adjusted for 96-well plates. All solutions were prepared in sodium phosphate buffer (125 mM, pH 7.5) that contained 6.3 mM EDTA (ethylenediaminetetraacetic acid). In summary, 60 µL of 0.35 mM NADPH and 10 µL of 6 mM DTNB were added to wells, this was followed by the addition of 20 µL cell lysate or glutathione (GSH) standard. To initiate the reaction, 10 µL of glutathione reductase (5 IU/mL) was added and the rate of reaction between GSH from cell lysate and DTNB was measured at 412 nm. Total glutathione of cell lysates was calculated based on a standard curve of glutathione.

[4] = system: intracellular ROS of HepG2 cells; test: Intracellular reactive oxygen species, DCFH2-DA assay; assay type: cell-based, Human; details: 100 µM peptide 24 h, then 20 mM AAPH 24 h, 40 µM DCFH2-DA, fluorescence 60 min
Method: The measurement of intracellular ROS was determined using a method described by Wolfe and Rui, with modifications. HepG2 cells were seeded at 4 × 10^4 cells/well in a 96-well tissue culture plate and were treated for 24 h with 100 µM of peptide dissolved in media, with the exception of NC and PC controls. Media was removed, cells washed twice with PBS, incubated (24 h) with 20 mM AAPH and washed again with PBS. Two hundred µL of 40 µM DCFH2-DA dissolved in buffer was added, and fluorescent intensity was immediately recorded at 2 min intervals for a total of 60 min. The percentage increase in fluorescent intensity was calculated as shown in Equation (1). (1) Fluorescent increase (%)=Final reading−Initial reading/Initial reading×100

For `CC[C@H](C)[C@H](NC(=O)[C@H](Cc1ccc(O)cc1)NC(=O)[C@@H](NC(=O)[C@H](CC(C)C)NC(=O)CNC(=O)[C@@H]1CCCN1C(=O)[C@H](C)NC(=O)[C@H](CC(N)=O)NC(=O)[C@H](Cc1c[nH]cn1)NC(=O)[C@@H](N)Cc1ccc(O)cc1)C(C)C)C(=O)N[C@@H](CC(C)C)C(=O)O` [P6] (H-YHNAPGLVYIL-OH; N-terminus and C-terminus assumed), the “ORAC value (peroxyl radical scavenging activity)” value [1] was 0.14–0.61 µM TE/µM, the “Effect on HepG2 cell viability compared to NC” value (HepG2 cells; 50 and 100 µM peptide, MTT, p > 0.05) was “did not affect HepG2 cells viability” and the “Effect on SOD activity compared to AAPH treated cells only (PC)” value [2] was “did not affect the activity”. The “GSH concentration relative to normal cells” value [3] was “further increased” and the “Intracellular reactive oxygen species” value [4] was “reduced production of intracellular reactive oxygen species”.

With `CC[C@H](C)[C@H](NC(=O)[C@H](Cc1ccc(O)cc1)NC(=O)[C@@H](NC(=O)[C@H](CC(C)C)NC(=O)CN)C(C)C)C(=O)N[C@@H](CC(C)C)C(=O)O` [P2] (H-GLVYIL-OH; N-terminus and C-terminus assumed) the “ORAC value (peroxyl radical scavenging activity)” value [1] was 0.67 ± 0.02 µM TE/µM, the “Increase in cell viability (growth promotion)” value (HepG2 cells; peptide alone, no AAPH, MTT (Figure 2A)) was roughly 2.7 fold and the “Concentration above which cytotoxic” value (HepG2 cells; tested at 20–500 µM, MTT) was “above 450 µM”. For the same molecule, the “Effect on SOD activity compared to AAPH treated cells only (PC)” value [2] was “increase SOD to a level equivalent to that of normal cells”, the “GSH concentration relative to normal cells” value [3] was “further increased” and the “Intracellular reactive oxygen species” value [4] was “reduced production of intracellular reactive oxygen species”.
